In patent publication US20100267749A1, “TRISUBSTITUTED FUROPYRIMIDINES AND USE THEREOF” (BAYER SCHERING PHARMA AKTIENGESELLSCHAFT, priority 2007, published 2010):

What follows are compounds tested against T1, Prostacyclin Receptors (IP Receptors) of Human Thrombocyte Membranes (Homo sapiens, UniProt P43119) (assay: Binding to prostacyclin receptors (IP receptors) of human thrombocyte membranes, 3H-Iloprost displacement). Conditions: 3 nM 3H-Iloprost, 60 min, room temperature.
T1 construct: Thrombocyte membranes are obtained by centrifuging 50 ml of human blood; tissue Maco Pharma, Langen (buffy coats); host or cells: human thrombocyte (platelet) membranes from human blood
T1 sequence (P43119 whole entry): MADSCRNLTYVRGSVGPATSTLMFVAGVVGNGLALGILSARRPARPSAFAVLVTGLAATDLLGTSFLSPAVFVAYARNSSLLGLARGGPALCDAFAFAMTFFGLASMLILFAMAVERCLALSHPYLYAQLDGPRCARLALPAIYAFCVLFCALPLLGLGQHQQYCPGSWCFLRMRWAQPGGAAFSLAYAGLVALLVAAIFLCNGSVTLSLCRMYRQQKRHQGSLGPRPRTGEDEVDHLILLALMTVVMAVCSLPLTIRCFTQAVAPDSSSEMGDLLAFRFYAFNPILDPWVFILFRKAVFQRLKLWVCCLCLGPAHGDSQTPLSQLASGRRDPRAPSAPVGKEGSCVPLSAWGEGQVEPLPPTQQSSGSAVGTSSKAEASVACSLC
Method: B-1. Studies of Binding to Prostacyclin Receptors (IP Receptors) of Human Thrombocyte Membranes
Thrombocyte membranes are obtained by centrifuging 50 ml of human blood (Buffy coats with CDP Stabilizer, from Maco Pharma, Langen) for 20 min at 160×g. Remove the supernatant (platelet-rich plasma, PRP) and then centrifuge again at 2000×g for 10 min at room temperature. Resuspend the sediment in 50 mM tris(hydroxymethyl)amino-methane, which has been adjusted to a pH of 7.4 with 1 N hydrochloric acid, and store at −20° C. overnight. On the next day, centrifuge the suspension at 80 000×g and 4° C. for 30 min. Discard the supernatant. Resuspend the sediment in 50 mM tris(hydroxy-methyl)aminomethane/hydrochloric acid, 0.25 mM ethylene diamine tetraacetic acid (EDTA), pH 7.4, and then centrifuge once again at 80 000×g and 4° C. for 30 min. Take up the membrane sediment in binding buffer (50 mM tris(hydroxymethyl)-aminomethane/hydrochloric acid, 5 mM magnesium chloride, pH 7.4) and store at −70° C. until the binding test.
For the binding test, incubate 3 nM ^3H-Iloprost (592 GBq/mmol, from AmershamBioscience) for 60 min with 300-1000 μg/ml of human thrombocyte membranes per charge (max. 0.2 ml) in the presence of the test substances at room temperature. After stopping, add cold binding buffer to the membranes and wash with 0.1% bovine serum albumin. After adding Ultima Gold Scintillator, quantify the radioactivity bound to the membranes using a scintillation counter. The nonspecific binding is defined as radioactivity in the presence of 1 μM Iloprost (from Cayman Chemical, Ann Arbor) and is as a rule <25% of the bound total radioactivity. The binding data (IC50 values) are determined using the program GraphPad Prism Version 3.02.

Row | SMILES | IC50
1 | CCCNC(=O)/C(C)=C/c1c(-c2ccccc2)oc2ncnc(O[C@H](C)CCCCC(=O)O)c12 [Example 21, (6R)-6-({5-[(1E)-2-methyl-3-oxo-3-(propylamino)prop-1-en-1-yl]-6-phenylfuro[2,3-d]pyrimidin-4-yl}oxy)heptanoic acid] | 132 nM
2 | C=CCOC(=O)/C=C/c1c(-c2ccccc2)oc2ncnc(O[C@H](C)CCCCC(=O)O)c12 [Example 15] | 545 nM
3 | CCCC(=O)/C=C/c1c(-c2ccccc2)oc2ncnc(O[C@H](C)CCCCC(=O)O)c12 [Example 17] | 1050 nM
4 | CCOC(=O)/C(C)=C/c1c(-c2ccccc2)oc2ncnc(O[C@H](C)CCCCC(=O)O)c12 [Example 16, (6R)-6-({5-[(1E)-3-ethoxy-2-methyl-3-oxoprop-1-en-1-yl]-6-phenylfuro[2,3-d]pyrimidin-4-yl}oxy)heptanoic acid] | 13 nM
